Data on two compounds can be found in patent US8080417B2, “Methods of ex vivo hematopoietic stem cell expansion by co-culture with mesenchymal cells” (priority 2004, dated 2011).

For data set [1] the following is noted: cited from earlier work.
The subject of data set [2] is hematopoietic stem cells (mononuclear cells co-cultured with mesenchymal cells). The data set is described as follows: Assay for Colony Forming Units (CFU) on 21-day mesenchymal-MNC co-culture. It is filed as cell-based, human. The following applies: Table 3 experiment; 21 days; Nicotinamide 5 mM. The text has this: (§1) Mesenchymal hematopoietic co-cultures: Mesenchymal cultures were established as described above. After reaching confluence, the mesenchymal medium was discarded and replaced with fresh, hematopoietic supportive medium containing early acting or early and late acting cytokines, and hematopoietic cells selected from; cord blood, bone marrow, placenta or peripheral blood mononuclear cells or purified progenitor cells (CD34+ or CD133+ cells), with or without a modulator of cell fate. Mononuclear or purified stem and/or progenitor cells were isolated and prepared for ex-vivo culture as previously described (see, above, or, for example, PCT IL05/000753). At different intervals the non-adherent cells were harvested, analyzed for hematopoietic potential by functional analysis (clonogenic assay, CFU, etc), and re-cultured in a stroma-free medium. The stromal layer was then re-supplemented with fresh hematopoietic supportive medium (medium including 10% FCS, SCF, TPO, FLT3, and IL6). This process was repeated several times during two to six weeks co-culture duration (as on day 10, day 14, etc).
Assay for Colony Forming Units (CFU)—Cells were cloned in semi-solid, methylcellulose-containing medium supplemented with 2 IU/mL erythropoietin (Eprex, Cilag AG Int., Switzerland), stem cell factor and IL-3, both at 20 ng/mL, G-CSF and GM-CSF, both at 10 ng/mL (all from Pepro Tech, Rocky Hill, N.J.). […]

Data set [3] concerns hematopoietic stem cells (from bone marrow) co-cultured with mesenchymal cells. As to the kind of experiment: Long-term Mesenchymal-MNC co-culture (21 days +/- Nicotinamide, then 5 weeks cytokines only), assessed at 8 weeks. It counts as cell-based, human. As for the experimental part: Assay for Colony Forming Units (CFU)—Cells were cloned in semi-solid, methylcellulose-containing medium supplemented with 2 IU/mL erythropoietin (Eprex, Cilag AG Int., Switzerland), stem cell factor and IL-3, both at 20 ng/mL, G-CSF and GM-CSF, both at 10 ng/mL (all from Pepro Tech, Rocky Hill, N.J.). Cultures were incubated for 14 days at 37° C. in humidified atmosphere of 5% CO2 in air.
In order to determine the long-term effects of modulators of cell fate on the long-term engraftment potential of hematopoietic stem cells, CFUc, CD34+ and CD34+/CD38− cells were assessed in co-cultured cells at 8 weeks (5 weeks after removal of nicotinamide from the medium).
The mononuclear cell fraction, prepared as described above, was expanded in co-culture with mesenchymal cells in medium supplemented with cytokines and 5 mM nicotinamide, as described hereinabove, for 21 days. After 21 days, the medium was replaced with medium supplemented with cytokines only, and expansion in co-cultures continued for another 5 weeks. At 8 weeks, the expanded cells were assessed for hematopoietic stem cell markers (CD34+ and CD34+/CD38−), and for engraftment potential (CFUc), as described hereinabove.

The subject of data set [4] is hematopoietic stem cells (mononuclear cells co-cultured with mesenchymal cells). The data set is described as follows: Mesenchymal-MNC co-culture at 21 days +/- Nicotinamide 5 mM: cell counts and surface markers. It counts as cell-based, human.
Source text: Isolation of mesenchymal cells: Mononuclear cells containing mesenchymal cells from bone marrow were obtained from a […] prepared by negative immuno-depletion of CD3, CD14, CD19, CD38, CD66b, and glycophorin-A positive cells using a commercially available kit (RosetteSep®, StemCell Technologies, Vancouver, BC, Canada), as per manufacturer's instructions. […] Blood 90 Suppl. 1 347b, 1997 (abst)]. The immuno-depleted cells were harvested, and then either further separated by layering on a Ficoll-Paque (Amersham-Pharmacia, Piscataway, N.J., USA) density gradient column (1.077 g/cm^3) and centrifuged at 400×g for 30 minutes, or cultured without further separation. The collected cells were plated in T75 non-coated tissue culture flasks (Nunc) at a concentration of 2×10^5 cells/ml, in expansion medium containing: low glucose DMEM and 20% Fetal Bovine Serum (FBS, Hyclone, Logan, Utah, USA) supplemented with or without 10 ng/ml bFGF (Pepro Tech Inc, Rocky Hill N.J.), 0.05 mg/ml gentamicin (Sigma Inc., St. Louis, Mo.) and 2 mM L-glutamine (Biological Industries, Israel). Selected cells were allowed to adhere for 3-4 days and non-adherent cells were washed out with medium changes. Some experiments were initiated as well with the entire MNC fraction.
Maintenance and expansion of mesenchymal cells: When adherent mesenchymal cells reached approximately 80-90% confluence, they were detached with 0.25% trypsin-EDTA (Sigma, Inc. St Louis, Mo.), washed twice in DMEM and 20% Fetal Bovine Serum, with centrifugation, 400 g, 5 min., and re-plated at a 1:2 to 1:1000 dilution under the same culture conditions.
as §1
Immunophenotyping: At different time points the cells were detached with 1 mM EDTA (15′, 37° C.). The detached cells were washed with a PBS solution containing 1% BSA, and stained (at 4° C. for 30 min) with either fluorescein isothiocyanate (FITC) or phycoerythrin (PE)-conjugated antibodies: mesenchymal markers 105 PE, 105 FITC (Serotec), 73 PE, and 49b PE, and other, non-mesenchymal markers such as 45 FITC, 14 FITC, HLA-DR FITC (BD Biosciences Pharmngen), 34 PE (Dako, Carpenteria, Calif., USA), HLA class1 PE, (BD Biosciences Pharmingen, San Diego Calif.). The cells were then washed in the above buffer and analyzed using a FACScalibur® flow cytometer (Becton Dickinson and Co, San Jose, Calif., USA). Cells were passed at a rate of about 1000 cells/second, using saline as the sheath fluid. A 488 nm argon laser beam served as the light source for excitation. Emission of ten thousand cells was measured using logarithmic amplification and calculated using the cellQuest software.

Data set [5] deals with CD34+/CXCR4+ cells in hematopoietic stem cells co-cultured with mesenchymal cells. As to the kind of experiment: CXCR4 in Mesenchymal-MNC co-culture at 21 days (CD34/CXCR4 double staining). It counts as cell-based, human. The note with it: for Number of CD34+CXCR4+ cells: 21 days, co-culture + cytokines + Nicotinamide 5 mM; for % Increase of CD34+CXCR4+ cells: vs co-culture + cytokines without nicotinamide. The source says: Induction of CXCR4 expression in hematopoietic stem cells results in increased sensitivity to lower levels of SDF-1, increased migration of the cells to SDF-1, improved proliferation and survival of the hematopoietic stem cells in-vitro and in-vivo, and improved engraftment potential of the induced cells. Similarly, it has been shown that blockage of CXCR4 with specific antibodies prevents engraftment of hematopoietic stem cells (Brenner, et al Stem Cells 2004; 22:1128-33; Kahn et al, Blood, 2004; 103:2942-49; Peled et al, Science 1999; 283:845-48). In order to investigate the effect of modulators of cell fate on CXCR4 expression in hematopoietic stem cells in co-culture with mesenchymal cells, the population of CD34+/CXCR4+ cell in co-cultured cells was detected and quantified by double staining with PE labeled CD34 and FITC labeled CXCR4. […] This enhanced CXCR4 expression contributes to the enhanced engraftment potential of the expanded, undifferentiated hematopoietic stem cells.

Setting [6] is: 21 days Nicotinamide 5 mM then 5 weeks cytokines only.
Where [7] appears, read: Table 1 experiment, 21 days, Nicotinamide 5 mM.
The mark [8] stands for this setting: Table 2 experiment, 21 days, Nicotinamide 5 mM.
Setting [9] is: Table 3 experiment, 21 days, Nicotinamide 5 mM.
Setting [10] is: Table 4 experiment, 21 days, Nicotinamide 5 mM.

Where only a bound is given, the exact number is not on record here.

For the compound `O=c1cc(N2CCOCC2)oc2c(-c3ccccc3)cccc12` [LY294002], in data set [1], the “stability in tissue culture medium” value is on record as “very stable”.
In the case of `NC(=O)c1cccnc1` [Nicotinamide, nicotinamide], the “CFU (×10^3)” value in data set [2] is 4331 ×10^3. In data set [3] (setting [6]), the “CD34+ cells (cumulative)” value is on record as 264 × 10^6, the “CD34+/CD38− (%)” value was determined as 6.3% and the “CFUc (cumulative)” value is listed as 28 × 10^6. Further, in data set [3] (vs co-culture + cytokines), the “Fold Increase (%) of CD34+ cells (cumulative)” value is given as 235%, the “Fold Increase (%) of CD34+/CD38− (%)” value is listed as 1050% and the “Fold Increase (%) of CFUc (cumulative)” value was 215%. In data set [4] (setting [7]), the “CD34+CD38− (×10^4)” value is 304 ×10^4, the “CD34+Lin− (×10^4)” value is listed as 25 ×10^4 and the “TNC × 10^6” value is given as 309 × 10^6. Besides, in data set [4] (setting [8]), the “CD34+CD38− (×10^4)” value was 1238 ×10^4, the “CD34+Lin− (×10^4)” value is on record as 689 ×10^4 and the “TNC × 10^6” value is given as 309 × 10^6. Moreover, in data set [4] (setting [9]), the “CD34+ (×10^4)” value is reported as 1553 ×10^4, the “CD34+/TNC” value worked out at 5.3%, the “CD34+CD38− (×10^4)” value is 82 ×10^4 and the “TNC × 10^6” value is listed as 292 × 10^6. The “CD34+/TNC” value in data set [4] (Table 3 experiment, 21 days, Nicotinamide 5 mM, listed as nicotinamide) was 5.3%. In addition, in data set [4] (setting [10]), the “CD34+ (×10^4)” value is on record as 216 ×10^4, the “CD34+/TNC” value is given as 1.5%, the “CD34+CD38− (×10^4)” value was 63 ×10^4 and the “CD34+Lin− (×10^4)” value is listed as 1.54 ×10^4. Further, the “TNC × 10^6” value in data set [4] (setting [10]) was 144 × 10^6. The “CD34+/TNC” value in data set [4] (Table 4 experiment, 21 days, Nicotinamide 5 mM, listed as nicotinamide) worked out at 1.5%. Besides, the “greater expansion of stem cells (CD34+) relative to total nucleated cells, compared with cocultures without nicotinamide” value in data set [4] (Tables 3 and 4, 21 days, Nicotinamide 5 mM) is listed as at most 2.3 times. Also, the “increase of the proportion of CD34+/38− cells and CD34+/Lin− cells in the cultures” value in data set [4] (with nicotinamide, in some cases, Tables 1-5) was above 10 fold. In data set [5] (Exp 1), the “Number of CD34+CXCR4+ cells” value is listed as 65 × 10^4 and the “% Increase of CD34+CXCR4+ cells” value worked out at 80%. In data set [5] (Exp 2), the “Number of CD34+CXCR4+ cells” value was 200 × 10^4 and the “% Increase of CD34+CXCR4+ cells” value was found to be 33%.
